Article PMC3446843 (Toxicological Sciences, 2012)

Tests used:
[1] = test system: isolated mouse liver mitochondria; experiment: Loss of mitochondrial transmembrane potential; assay type: biochemical; conditions: for ΔΨm loss EC20: 20% of maximal loss of ΔΨm (50µM mClCCP = 100%), 30-min incubation
[2] = test system: isolated mouse liver mitochondria, complex I; experiment: Oxygen consumption through complex I; conditions: for O2 cons CI EC20: inhibition of oxygen consumption, malate + glutamate + ADP, 2µM rotenone = 100%; for effect on oxygen consumption (in words): with malate/glutamate and/or succinate
[3] = test system: isolated mouse liver mitochondria; experiment: Cytochrome c release; assay type: biochemical; conditions: without Ca2+ pulse
[4] = test system: isolated mouse liver mitochondria; experiment: Mitochondrial swelling; conditions: without Ca2+ pulse
[5] = short incubation of isolated mitochondria; ref Kamel et al. (2012); cited from earlier work

Structure (SMILES)	ΔΨm loss EC20 [1] [µM]	O2 cons CI EC20 [2] [µM]	also measured
O=P(O)(O)C(Cl)(Cl)P(=O)(O)O [Clodronate]	> 400	227.2	
COc1cc(/C=C/C(=O)CC(=O)/C=C/c2ccc(O)c(OC)c2)ccc1O [Curcumin]	> 200	> 200	
CC(C)(S)[C@@H](N)C(=O)O [D-penicillamine]	> 400	> 800	
Nc1ccc(S(=O)(=O)c2ccc(N)cc2)cc1 [Dapsone]	> 400	205.5	
C[C@@H]1C[C@H]2[C@@H]3CCC4=CC(=O)C=C[C@]4(C)[C@@]3(F)[C@@H](O)C[C@]2(C)[C@@]1(O)C(=O)CO [Dexamethasone]	> 200	> 200	
O=C(O)Cc1ccccc1Nc1c(Cl)cccc1Cl [Diclofenac]	137.9	29.8	induction of cytochrome c release (in words) [3]: unable to induce
Cc1c(N(C)CS(=O)(=O)[O-])c(=O)n(-c2ccccc2)n1C.[Na+] [Dipyrone]	354.4	107.3	
C#Cc1cccc(Nc2ncnc3cc(OCCOC)c(OCCOC)cc23)c1 [Erlotinib]	195.9		effect on oxygen consumption (in words) [2]: increased oxygen consumption
CC[C@H]1OC(=O)[C@H](C)[C@@H](O[C@H]2C[C@@](C)(OC)[C@@H](O)[C@H](C)O2)[C@H](C)[C@@H](O[C@@H]2O[C@H](C)C[C@H](N(C)C)[C@H]2O)[C@](C)(O)C[C@@H](C)C(=O)[C@H](C)[C@@H](O)[C@]1(C)O [Erythromycin]	> 400	27.9	
CCOC(=O)c1ccc(O)cc1 [Ethyl paraben]	297.5	47.8	
OC(Cn1cncn1)(Cn1cncn1)c1ccc(F)cc1F [Fluconazole]	512.7	186.6	
Nc1nc2ncc(CNc3ccc(C(=O)N[C@@H](CCC(=O)O)C(=O)O)cc3)nc2c(=O)[nH]1 [Folic acid]	276.2	213.0	
O=C(O)c1cc(O)c(O)c(O)c1 [Gallic acid]	> 200	153.9	
CC(C)Cc1ccc(C(C)C(=O)O)cc1 (centres unmarked) [Ibuprofen]	355.9	132.1	
CC(=O)N1CCN(c2ccc(OCC3COC(Cn4ccnc4)(c4ccc(Cl)cc4Cl)O3)cc2)CC1 (centres unmarked) [Ketoconazole]	243.0	2.9	
Nc1ccn([C@@H]2CS[C@H](CO)O2)c(=O)n1 [Lamivudine]	347.2	317.4	
CCN(CC)CC(=O)Nc1c(C)cccc1C [Lidocaine]	339.5		effect on oxygen consumption (in words) [2]: increased oxygen consumption
CC[C@H](C)C(=O)O[C@H]1C[C@@H](C)C=C2C=C[C@H](C)[C@H](CC[C@@H]3C[C@@H](O)CC(=O)O3)[C@H]21 [Lovastatin]	43.6	6.2	
Cc1ccc(Nc2c(F)cccc2Cl)c(CC(=O)O)c1 [Lumiracoxib]	148.8	12.0	
[Cl][Mn][Cl] [Manganese chloride]	> 800	> 400	
CN(C)C(=N)N=C(N)N [Metformin]	388.4	351.8	
COC(=O)c1ccc(O)cc1 [Methyl paraben]	> 200	94.8	
C[C@](N)(Cc1ccc(O)c(O)c1)C(=O)O [Methyldopa]	> 400	63.1	
CCOC(=O)[N-]c1cn(N2CCOCC2)n[o+]1 [Molsidomine]	> 400	> 200	
C=CCN1CC[C@]23c4c5ccc(O)c4O[C@H]2C(=O)CC[C@@]3(O)[C@H]1C5 [Naloxone]	298.7	> 400	

Structure (SMILES)	ΔΨm loss EC20 [1] [µM]	O2 cons CI EC20 [2] [µM]	also measured
CN1CCC[C@H]1c1cccnc1 [Nicotine]	> 400	312	
O=C(N/N=C/c1ccc([N+](=O)[O-])o1)c1ccc(O)cc1 [Nifuroxazide]	388.2	3.7	
O=C1CN(/N=C/c2ccc([N+](=O)[O-])o2)C(=O)N1 [Nitrofurantoin]	442.5	8.7	
CO[C@@H]1[C@@H](OC(N)=O)[C@@H](O)[C@H](Oc2ccc3c(O)c(NC(=O)c4ccc(O)c(CC=C(C)C)c4)c(=O)oc3c2C)OC1(C)C [Novobiocin]	351.6	173.5	
CCN(CC)CC#CCOC(=O)C(O)(c1ccccc1)C1CCCCC1 (centres unmarked) [Oxybutynine]	178.3	115.4	
C#CCN(C)Cc1ccccc1 [Pargyline]	243	206.8	
C1CCC(C(CC2CCCCN2)C2CCCCC2)CC1 (centres unmarked) [Perhexiline]	3.2	87.7	induction of mitochondrial swelling (in words) [4]: induced mitochondrial swelling and cytochrome c release when very low concentrations were used; induction of cytochrome c release (in words) [3]: induced mitochondrial swelling and cytochrome c release when very low concentrations were used
Oc1cc(O)cc(O)c1 [Phloroglucinol]	> 800	> 400	
CN1C(C(=O)Nc2ccccn2)=C(O)c2ccccc2S1(=O)=O [Piroxicam]	101.7	6.6	
CCCOC(=O)c1ccc(O)cc1 [Propyl paraben]	162.8	28.4	
NC(=O)c1cnccn1 [Pyrazinamide]	> 400	190.9	
CNC(=C[N+](=O)[O-])NCCSCc1ccc(CN(C)C)o1 [Ranitidine]	368.1	97.3	
O=C1NS(=O)(=O)c2ccccc21 [Saccharin]	> 400	179.4	
O=C(O)c1ccccc1O [Salicylic acid]	304.3	120.9	
CC(C)(C)NC(=O)[C@@H]1C[C@@H]2CCCC[C@@H]2CN1C[C@@H](O)[C@H](Cc1ccccc1)NC(=O)[C@H](CC(N)=O)NC(=O)c1ccc2ccccc2n1 [Saquinavir]	10.3		concentrations collapsing the ΔΨm and altering the mitochondrial respiration ([1]; ΔΨm and respiration): lower than 50 μM; effect on oxygen consumption (in words) [2]: increased oxygen consumption
CN[C@@H]1[C@H](O)[C@H](NC)[C@H]2O[C@@]3(O)C(=O)C[C@@H](C)O[C@H]3O[C@@H]2[C@H]1O [Spectinomycin]	> 400		effect on oxygen consumption (in words) [2]: increased oxygen consumption
OC[C@H]1O[C@@](CO)(O[C@H]2O[C@H](CO)[C@@H](O)[C@H](O)[C@H]2O)[C@@H](O)[C@@H]1O [Sucrose]	> 800	> 800	
Cc1cc(NS(=O)(=O)c2ccc(N)cc2)no1 [Sulfamethoxazole]	> 400	> 400	
CC1=C(CC(=O)O)c2cc(F)ccc2/C1=C\c1ccc([S+](C)[O-])cc1 (centres unmarked) [Sulindac]	> 200	35.6	
CNS(=O)(=O)Cc1ccc2[nH]cc(CCN(C)C)c2c1 [Sumatriptan]	248.3	> 400	compound metabolized [5]: 30%
NCCS(=O)(=O)O [Taurine]	> 800	> 800	
Cc1c(C)c2c(c(C)c1O)CCC(C)(COc1ccc(CC3SC(=O)NC3=O)cc1)O2 (centres unmarked) [Troglitazone]	3.4	6.0	induction of mitochondrial swelling (in words) [4]: unable to trigger; induction of cytochrome c release (in words) [3]: unable to trigger
C[C@@H]1O[C@@H](OC[C@H]2O[C@@H](Oc3c(-c4ccc(OCCO)c(OCCO)c4)oc4cc(OCCO)cc(O)c4c3=O)[C@H](O)[C@@H](O)[C@@H]2O)[C@H](O)[C@H](O)[C@H]1O [Troxerutin]	> 400	170.5	
CCCC(CCC)C(=O)O [Valproic acid]	267.2	44.9	
Cc1cn([C@H]2C[C@H](N=[N+]=[N-])[C@@H](CO)O2)c(=O)[nH]c1=O [Zidovudine]	416.1		effect on oxygen consumption (in words) [2]: increased oxygen consumption
